Tested on: Pseudomonas aeruginosa PAM1001
Assay: Checkerboard assay (broth microdilution): levofloxacin MIC in presence of efflux pump inhibitor
Type: cell-based
Description: Potentiation effect is observed by the reduction of the minimum inhibitory concentration of levofloxacin in the presence of the experimental efflux pump inhibitor. The activity of efflux pump inhibitors (EPI) in combination with fluoroquinolones, such as levofloxacin, is assessed by the checkerboard assay (Antimicrobial Combinations. In Antibiotics in Laboratory Medicine, Ed. Victor Lorian, M.D., Fourth edition, 1996, pp 333-338) using broth microdilution method performed as recommended by the NCCLS (National Committee for Clinical Laboratory Standards (NCCLS). 1997. Methods for Dilution of Antimicrobial Susceptibility Tests for Bacteria That Grow Aerobically—Fourth Edition; Approved Standard. NCCLS Document M7-A4, Vol 17 No.2). The test organism used is Pseudomonas aeruginosa PAM1001. […] The compounds tabulated below are representative of the described invention.
In this assay, multiple dilutions of two drugs, namely the EPI and levofloxacin, are being tested, alone and in combination, at concentrations equal to, above and below their respective minimal inhibitory concentrations (MICs). In the case of EPI, most of these compounds are devoid of intrinsic antimicrobial activity and are tested at the maximum concentration of 40 μg/mL. The MIC of levofloxacin against P. aeruginosa PAM1001 is 4 μg/mL.
The EPI tested are readily soluble in water and stock solutions are prepared at a final concentration of 2 mg/mL. Stock solutions are further diluted, according to the needs of a particular assay, in Mueller Hinton Broth (MHB). Stock solution can be stored at −80° C. Quinolones are solubilized according to the instructions of the manufacturers, at a concentration of 1 mg/mL. They are then further diluted in MB. Stock solution can be stored at −80° C.
The checkerboard assay is performed in microtiter plates. Levofloxacin is diluted in the x axis, each column containing a single concentration of levofloxacin. The EPI is diluted in the y axis, each row containing an equal concentration of EPI. The result of these manipulations is that each well of the microtiter plate contains a unique combination of concentrations of the two agents. Each EPI are tested independently.
The assay is performed in MHB with a final bacterial inoculum of 5×10^5 CFU/mL (from an early-log phase culture). Microtiter plates are incubated during 20 h at 35° C. and are read using a microtiterplate reader (Molecular Devices) at 650 nm as well as visual observation using a microtiter plate reading mirror.

NCCC[C@@H](N)C(=O)N[C@H](CCc1ccccc1)C(O)c1nc2ncccc2o1.O=C(O)C(F)(F)F (mixture of isomers) [Compound 36, (2R)-2,5-Diamino-N-[(1R)-1-[(RS)-(1-oxazolo[4,5-b]pyridin-2-yl)-hydroxymethyl]-3-phenylpropyl]valeramide Trifluoroacetate]
2 µg/mL: Levofloxacin MIC Against P. aeruginosa PAM1001 in Presence of Efflux Pump Inhibitor (EPI), Minimum Inhibitory Concentration (EPI Conc. 20 μg/mL) | Levofloxacin MIC Against P. aeruginosa PAM1001 in Presence of Efflux Pump Inhibitor (EPI), Minimum Inhibitory Concentration (EPI Conc. 40 μg/mL)
4 µg/mL: Levofloxacin MIC Against P. aeruginosa PAM1001 in Presence of Efflux Pump Inhibitor (EPI), Minimum Inhibitory Concentration (EPI Conc. 0 μg/mL (levofloxacin alone)) | Levofloxacin MIC Against P. aeruginosa PAM1001 in Presence of Efflux Pump Inhibitor (EPI), Minimum Inhibitory Concentration (EPI Conc. 0.625 μg/mL) | Levofloxacin MIC Against P. aeruginosa PAM1001 in Presence of Efflux Pump Inhibitor (EPI), Minimum Inhibitory Concentration (EPI Conc. 1.25 μg/mL) | Levofloxacin MIC Against P. aeruginosa PAM1001 in Presence of Efflux Pump Inhibitor (EPI), Minimum Inhibitory Concentration (EPI Conc. 2.5 μg/mL) | Levofloxacin MIC Against P. aeruginosa PAM1001 in Presence of Efflux Pump Inhibitor (EPI), Minimum Inhibitory Concentration (EPI Conc. 5 μg/mL) | Levofloxacin MIC Against P. aeruginosa PAM1001 in Presence of Efflux Pump Inhibitor (EPI), Minimum Inhibitory Concentration (EPI Conc. 10 μg/mL)

C[C@H]1COc2c(N3CCN(C)CC3)c(F)cc3c(=O)c(C(=O)O)cn1c23 [levofloxacin, reference compound]
4 µg/mL: MIC (Pseudomonas aeruginosa, PAM1001, read-out: MIC of levofloxacin against P. aeruginosa PAM1001)

Reference: patent US6436980B1, “Peptidomimetic efflux pump inhibitors” (priority 1998, dated 2002)
